Results reported in publication PMC8213057, “Targeting ALK2: An Open Science Approach to Developing Therapeutics for the Treatment of Diffuse Intrinsic Pontine Glioma” (Journal of Medicinal Chemistry, 2020).

What was measured:
[1] = target: CYP2C19
[2] = target: CAMK2b (Homo sapiens, UniProt Q13554); details: 1 μM; Run 1, Run 2
[3] = target: T1, GRK2 (Homo sapiens, UniProt P25098); details: 1 μM; Run 1, Run 2
T1 sequence (P25098 1-689): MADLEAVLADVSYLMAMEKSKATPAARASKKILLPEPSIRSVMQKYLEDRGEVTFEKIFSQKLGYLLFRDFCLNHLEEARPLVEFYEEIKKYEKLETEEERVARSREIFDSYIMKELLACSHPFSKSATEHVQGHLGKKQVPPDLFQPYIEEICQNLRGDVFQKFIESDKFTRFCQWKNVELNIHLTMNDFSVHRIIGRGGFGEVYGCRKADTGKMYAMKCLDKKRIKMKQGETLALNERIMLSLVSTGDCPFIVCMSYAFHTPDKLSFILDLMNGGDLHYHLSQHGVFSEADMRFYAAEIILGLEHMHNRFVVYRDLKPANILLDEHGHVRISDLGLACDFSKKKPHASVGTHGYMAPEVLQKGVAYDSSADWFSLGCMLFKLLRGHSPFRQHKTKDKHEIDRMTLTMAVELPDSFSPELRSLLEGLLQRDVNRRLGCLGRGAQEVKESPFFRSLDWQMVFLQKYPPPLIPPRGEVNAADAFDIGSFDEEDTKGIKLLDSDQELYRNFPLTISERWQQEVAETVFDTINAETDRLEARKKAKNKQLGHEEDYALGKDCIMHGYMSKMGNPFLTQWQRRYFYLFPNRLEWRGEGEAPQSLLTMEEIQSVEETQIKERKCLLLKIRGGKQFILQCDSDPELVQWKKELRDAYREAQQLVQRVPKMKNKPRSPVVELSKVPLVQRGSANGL

[4] = target: T2, TAOK2/TAO1 (Homo sapiens, UniProt Q9UL54); details: 1 μM; Run 1, Run 2
T2 sequence (Q9UL54 1-1235): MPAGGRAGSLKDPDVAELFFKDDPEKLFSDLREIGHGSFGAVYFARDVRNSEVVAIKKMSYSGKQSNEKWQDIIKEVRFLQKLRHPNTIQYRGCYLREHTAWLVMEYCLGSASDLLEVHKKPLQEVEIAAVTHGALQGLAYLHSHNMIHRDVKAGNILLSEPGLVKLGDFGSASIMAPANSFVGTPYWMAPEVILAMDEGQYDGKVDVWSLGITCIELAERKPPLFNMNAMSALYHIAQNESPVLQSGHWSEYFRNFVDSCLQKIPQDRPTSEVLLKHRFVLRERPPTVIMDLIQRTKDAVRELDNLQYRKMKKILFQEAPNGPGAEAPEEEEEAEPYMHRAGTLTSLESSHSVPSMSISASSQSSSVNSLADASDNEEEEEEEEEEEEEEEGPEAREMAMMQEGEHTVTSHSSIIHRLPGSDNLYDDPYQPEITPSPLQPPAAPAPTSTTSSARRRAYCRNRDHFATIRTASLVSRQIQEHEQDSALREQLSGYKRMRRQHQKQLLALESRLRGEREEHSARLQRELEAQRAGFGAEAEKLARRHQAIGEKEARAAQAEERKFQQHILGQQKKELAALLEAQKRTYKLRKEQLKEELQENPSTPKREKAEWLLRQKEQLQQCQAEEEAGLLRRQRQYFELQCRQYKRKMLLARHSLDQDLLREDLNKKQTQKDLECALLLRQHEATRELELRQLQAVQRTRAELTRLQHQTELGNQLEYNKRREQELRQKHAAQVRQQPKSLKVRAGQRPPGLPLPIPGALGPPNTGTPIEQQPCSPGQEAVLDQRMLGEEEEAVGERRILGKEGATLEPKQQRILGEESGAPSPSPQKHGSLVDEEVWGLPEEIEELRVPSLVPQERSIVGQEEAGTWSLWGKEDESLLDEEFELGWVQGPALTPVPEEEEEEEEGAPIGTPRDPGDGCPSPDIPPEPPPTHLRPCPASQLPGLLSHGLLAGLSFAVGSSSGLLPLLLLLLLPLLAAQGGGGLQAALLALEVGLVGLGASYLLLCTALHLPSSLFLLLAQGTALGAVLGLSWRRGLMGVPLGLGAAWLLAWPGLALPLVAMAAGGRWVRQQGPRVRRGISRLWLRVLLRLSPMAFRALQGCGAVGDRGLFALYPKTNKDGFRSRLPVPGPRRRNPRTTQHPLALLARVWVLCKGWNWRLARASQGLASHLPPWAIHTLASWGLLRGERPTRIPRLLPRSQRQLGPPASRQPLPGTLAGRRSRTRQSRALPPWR

[5] = target: CAMK4 (Homo sapiens, UniProt Q16566); assay: biochemical; details: read-out: % enzyme activity, 1 μM; Run 1, Run 2
CAMK4, sequence (Q16566 whole entry): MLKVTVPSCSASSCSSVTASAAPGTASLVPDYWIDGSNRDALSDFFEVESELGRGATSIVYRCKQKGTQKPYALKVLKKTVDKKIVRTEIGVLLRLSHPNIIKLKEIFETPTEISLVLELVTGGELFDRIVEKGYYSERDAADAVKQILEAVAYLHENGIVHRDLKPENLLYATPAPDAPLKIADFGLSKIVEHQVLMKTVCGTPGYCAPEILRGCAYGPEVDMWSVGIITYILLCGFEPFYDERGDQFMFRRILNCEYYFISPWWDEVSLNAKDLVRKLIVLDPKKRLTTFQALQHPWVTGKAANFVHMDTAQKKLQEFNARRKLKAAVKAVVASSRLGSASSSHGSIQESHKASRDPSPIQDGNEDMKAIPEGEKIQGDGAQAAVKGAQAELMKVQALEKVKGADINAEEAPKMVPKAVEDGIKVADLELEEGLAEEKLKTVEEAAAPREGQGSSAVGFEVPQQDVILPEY

[6] = target: T3, MEKK3 (Homo sapiens, UniProt Q99759); assay: biochemical; details: read-out: % enzyme activity, 1 μM; Run 1, Run 2
T3 sequence (Q99759 1-626): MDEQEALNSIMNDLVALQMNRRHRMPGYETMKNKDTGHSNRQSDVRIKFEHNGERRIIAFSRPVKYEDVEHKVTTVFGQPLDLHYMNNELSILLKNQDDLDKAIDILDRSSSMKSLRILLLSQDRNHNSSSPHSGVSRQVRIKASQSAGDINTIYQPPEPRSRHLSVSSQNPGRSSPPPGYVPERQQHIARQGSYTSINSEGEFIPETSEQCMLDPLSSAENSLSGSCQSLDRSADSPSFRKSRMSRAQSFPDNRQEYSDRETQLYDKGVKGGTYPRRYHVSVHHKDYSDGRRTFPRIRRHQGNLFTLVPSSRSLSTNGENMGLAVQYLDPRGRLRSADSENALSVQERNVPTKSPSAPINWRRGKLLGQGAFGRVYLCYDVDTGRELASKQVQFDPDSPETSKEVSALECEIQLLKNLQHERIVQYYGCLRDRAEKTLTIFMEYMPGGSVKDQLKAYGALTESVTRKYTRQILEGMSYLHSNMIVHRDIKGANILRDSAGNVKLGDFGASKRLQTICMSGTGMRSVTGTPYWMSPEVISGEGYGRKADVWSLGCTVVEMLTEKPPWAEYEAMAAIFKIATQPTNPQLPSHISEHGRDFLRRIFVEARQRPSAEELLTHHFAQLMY

CAMK2b, sequence (Q13554 whole entry): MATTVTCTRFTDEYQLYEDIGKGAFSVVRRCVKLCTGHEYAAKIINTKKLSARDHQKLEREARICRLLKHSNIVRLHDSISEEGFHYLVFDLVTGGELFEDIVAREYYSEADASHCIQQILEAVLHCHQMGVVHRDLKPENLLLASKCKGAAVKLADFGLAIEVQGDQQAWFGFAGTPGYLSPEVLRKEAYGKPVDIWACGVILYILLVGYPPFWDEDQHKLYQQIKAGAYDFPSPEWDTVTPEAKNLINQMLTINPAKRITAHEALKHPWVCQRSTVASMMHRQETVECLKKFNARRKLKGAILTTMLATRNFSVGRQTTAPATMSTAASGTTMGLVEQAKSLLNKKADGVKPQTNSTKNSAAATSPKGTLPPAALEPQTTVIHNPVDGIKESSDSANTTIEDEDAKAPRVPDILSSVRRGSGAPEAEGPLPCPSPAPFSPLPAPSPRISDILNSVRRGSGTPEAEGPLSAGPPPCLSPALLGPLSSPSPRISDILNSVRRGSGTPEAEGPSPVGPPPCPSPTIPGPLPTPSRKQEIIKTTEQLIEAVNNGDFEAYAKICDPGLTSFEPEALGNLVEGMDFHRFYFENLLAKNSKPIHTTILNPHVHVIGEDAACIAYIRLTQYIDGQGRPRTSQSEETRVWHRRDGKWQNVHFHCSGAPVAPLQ

| Structure (SMILES) | CYP inhibition [1] | % enzyme activity [2] | % enzyme activity [3] | % enzyme activity [4] | remaining activity at 1 µM [5] | remaining activity at 1 µM [6] |
| --- | --- | --- | --- | --- | --- | --- |
| COc1cc(-c2cncc(-c3ccc(N4C[C@@H](C)N(C)[C@@H](C)C4)cc3)c2C)cc(F)c1C(N)=O [Compound 26c, 2-Fluoro-6-methoxy-4-(4-methyl-5-(4-((3R,5S)-3,4,5-trimethylpiperazin-1-yl)phenyl)pyridin-3-yl)benzamide] | > 50 µM | 91.32% | 99.17% | 99.37% | 103% | 109% |
| COc1cc(-c2cncc(-c3ccc(N4CCN(C)CC4)cc3)c2C)cc(F)c1C(N)=O [Compound 26a, 2-Fluoro-6-methoxy-4-(4-methyl-5-(4-(4-methylpiperazin-1-yl)phenyl)pyridin-3-yl)benzamide] | > 50 µM | 83.40% | 103.58% | 87.58% | 100% | 98% |
